Patent US20040142875A1, “Metastin derivatives and their use” (priority 2003, published 2004)
“Also recorded” adds a separate entry of the source. The star is where a group is joined. X1 = 4‑(N,N-Bis(2-pyridylmethyl)aminomethyl)benzoyl, O=C(c1ccc(CN(Cc2ccccn2)Cc2ccccn2)cc1)*; 4‑(guanidinomethyl)benzoyl = N=C(N)NCc1ccc(C(=O)*)cc1

Key:
Panc-1 cells [1] = experiment: Cell migration assay, Panc-1; format: cell-based; settings: for migration index: Panc-1 with KiSS-1 short derivatives, FIG. 7B
Method: (§1) A polyvinylpyrrolidone-free polycarbonate framed filter (8 μm pores) was set in a microchemotasis chamber (Corning Coster Corp., Cambridge, Mass.). Cells (2×10^6 cells in 200 μl RPMI1640 for AsPC-1 and in 200 μl DMEM for Panc-1) and peptide were added to the upper chamber and incubated at 37° C. for 12 hours to allow migration to the lower chamber, which contained 10% FBS/RPMI1640 for AsPC-1 or 5% FBS/DMEM for Panc-1 as a chemoattractant. After removing nonmigrating cells with a cotton swab from the upper surface of the membrane, cells on the lower surface were fixed, stained with Diff-Quick (International Reagent, Kobe, Japan). For quantification, cells were counted under a microscope in five predetermined fields at X200.

[2] = test system: ERK1/2, p38 and JNK1/2 in Panc-1 cells; experiment: MAPK activation by Western blot, Panc-1; format: cell-based; settings: 15 minutes, immunoblot, FIG. 5, FIG. 7C
Method: (§2) Pancreatic cancer cell lines AsPC-1, BxPC-3, Capan-2, CFPAC-1, Panc-1 and Suit-2 were purchased from the American Type Culture Collection. Cells were cultured as monolayers in the appropriate medium supplemented with 10% fetal bovine serum, 100 units/ml penicillin, and 100 μg/ml streptomycin at 37° C., in a humid atmosphere of 5% CO2/95% air. As for AsPC-1 and Panc-1, upon reaching 80% confluence, the medium was removed, the cells were washed in phosphate-buffered saline (PBS) and treated with increasing doses of metastin (Takeda Chemical Industries, Osaka, Japan) with 10% fetal bovine serum and protein was isolated 15 minutes later as described below.
Cells were collected into microtubes with a cell scraper and lysed for 60 min in phosphorylation-inhibitory RIPA buffer containing 50 mM HEPES (pH 7.0), 250 mM NaCl, 0.1% Nonidet P-40, 1 mM phenylmethylsulfonyl fluoride (PMSF) and 20 μg /ml gabexate mesilate, then the lysate was sonicated for 10 sec. Total extracts were cleaned by centrifugation at 12,000 rpm for 10 min at 4° C., the supernatants were collected. Protein concentrations were measured using a protein assay kit (Tonein-TP, Otsuka Pharmaceutical, Tokyo, Japan). The lysates were resuspended in one volume of the gel loading buffer which contained 50 mM Tris-HCl (pH 6.7), 4% SDS, 0.02% bromophenol blue, 20% glycerol and 4% 2-mercaptoethanol, and then boiled at 95° C. for 90 sec. The extracted protein was subjected to Western blotting, as previously described (Wada, M. et al., Pancreas. 15: 176-82., 1997). In brief, 30 μg aliquots of protein was size-fractionated to a single dimension by SDS-PAGE (12% gels) and transblotted to a 0.45 μm polyvinylidene difluoride membrane (Bio-Rad, Richmond, Calif.) in a semidry electroblot apparatus (Bio-Rad, Richmond, Calif.). The blots were, then washed three times with TBST buffer and incubated for two hours at RT in the first antibody solution containing anti-phosphoERK antibody (#pTEpY, Promega, Madison, Wis.), anti-phosphop38 MAPK (#pTGpY, Promega, Madison, Wis.) or anti-phosphoJNK(#pTPpY, Promega, Madison, Wis.), 0.2% I-block (Promega, Madison, Wis.). After three washings in TBST buffer, the blots were incubated for one hour at RT with horseradish peroxidase conjugated anti-rabbit IgG at a 1:2000 dilution with TBST buffer. After three washings in TBST buffer, membranes were treated with enhanced chemiluminescence reagents (Amersham Life Sciences, Amersham, UK) according to the manufacturer's protocol. Membranes were exposed to X-ray film for 5-60 seconds. Protein expression was measured by ATTO densito-analyzer system AE-6920M (ATTO Corporation, Tokyo Japan) and the quantity was expressed numerically. The quantity of the target protein was divided by that of beta actin and relative intensities were obtained.
To evaluate the signaling pathways activated by endogenous metastin receptors in pancreatic cancer, activation of MAPK was examined by treatment with metastin. Cells in exponential stage were incubated in serum containing medium and then transferred to the 1% BSA medium with metastin, as in the case of migration or invasion assay. After incubation with increasing dose of metastin (0 μM, 0.1 μM, 1 μM, 10 μM) for 15 minutes, activation of ERK1/2, p38 and JNK1/2 were measured by immunoblot (FIG. 5A).

Panc-1 cells [3] = experiment: Cell proliferation assay, Panc-1; format: cell-based; settings: for proliferation activity (cell growth): Panc-1 with KiSS-1 short derivatives, FIG. 7A
Method: as §2
(§3) For assaying proliferation, AsPC-1 and Panc-1 cells (1×10^4cells/3 cm diameter dish) were seeded in 10% FBS medium and incubated with increasing doses of metastin for 48 and 96 hours. Cells were trypsinized and cell numbers were counted using hematocytometer.

[4] = test system: hOT7T175 transfected Chinese hamster ovary (CHO) cells; settings: hOT7T175 transfected CHO cells in vitro; Hori et al., Kotani et al.; cited from earlier work
AsPC-1 cells [5] = experiment: Cell proliferation assay, AsPC-1; format: cell-based; settings: metastin 0, 100 μM, 1 μM and 10 μM for 48 hours and 96 hours, FIG. 3
Method: as §2, §3

[6] = test system: hOT7T175 transfected B16-BL6 melanomas; settings: hOT7T175 transfected B16-BL6 melanomas in vivo; Ohtaki et al.; cited from earlier work
Panc-1 cells [7] = experiment: Matrigel invasion assay, Panc-1; format: cell-based; settings: 10 μM metastin, 12 hours, FIG. 4B
Method: (§4) Cells and peptide (2×10^6 cells in 200 μl RPMI1640 for AsPC-1 and in 200 μl DMEM for Panc-1) were added to a Matrigel-coated Transwell(8 μm pores,. Becton Dickinson Labware, Bedford, Mass.) and incubated at 37° C. for 12 hours versus a lower chamber containing 10% FBS/RPMI1640 for AsPC-1 or 5% FBS/DMEM for Panc-1. After removing the Matrigel and cells from the upper surface of the membrane, cells on the lower surface were fixed, stained with Diff-Quick and quantified the number as well. Invasion index was defined as the number of invasion cells per that of migrating cells.

AsPC-1 cells [8] = experiment: Matrigel invasion assay, AsPC-1; format: cell-based; settings: 10 μM metastin, 12 hours, FIG. 4B
Method: as §4

[9] = test system: ERK1/2, p38 and JNK1/2 in AsPC-1 cells; experiment: MAPK activation by Western blot, AsPC-1; format: cell-based; settings: 0-10 μM for 15 minutes, immunoblot
Method: as §2
Cells were collected into microtubes with a cell scraper and lysed for 60 min in phosphorylation-inhibitory RIPA buffer containing 50 mM HEPES (pH 7.0), 250 mM NaCl, 0.1% Nonidet P-40, 1 mM phenylmethylsulfonyl fluoride (PMSF) and 20 μg /ml gabexate mesilate, then the lysate was sonicated for 10 sec. […] Protein concentrations were measured using a protein assay kit (Tonein-TP, Otsuka Pharmaceutical, Tokyo, Japan). […] Protein expression was measured by ATTO densito-analyzer system AE-6920M (ATTO Corporation, Tokyo Japan) and the quantity was expressed numerically. The quantity of the target protein was divided by that of beta actin and relative intensities were obtained. […]

AsPC-1 cells [10] = experiment: Cell migration assay, AsPC-1; format: cell-based; settings: metastin 0 μM, 100 μM, 1 μM, 10 μM for 12 hours, FIG. 4A
Method: as §1

Substance	migration index (Panc-1 cells [1])	activation of ERK1 (pERK1) [2]	activation of JNK1/2 (pJNKs) [2]	activation of p38 (pp38) [2]	proliferation activity (cell growth) (Panc-1 cells [3])	reduction of migratory activity (Panc-1 cells [1]; Panc-1, metastin 0 μM, 100 μM, 1 μM, 10 μM for 12 hours, p<0.01, FIG. 4A)	cell growth (Panc-1 cells [3]; Panc-1, metastin 0, 100 μM, 1 μM and 10 μM for 48 hours and 96 hours, FIG. 3)	chemotaxis and invasion [4]	cell growth (AsPC-1 cells [5])	pulmonary metastasis [6]	invasion activity (invasion index) (Panc-1 cells [7])	invasion activity (invasion index) (AsPC-1 cells [8])	activation of ERK1 (pERK1) [9]	activation of JNK1/2 (pJNKs) [9]	migratory activity (AsPC-1 cells [10])
4-(guanidinomethyl) benzoyl-Phe-Gly-Leu-Arg-Trp-NH2 ({4‑(guanidinomethyl)benzoyl}-FGLRW-NH2) [FM053a]	reduced the migration index; also recorded: less suppressive than FM052a	less activation of pERK1 than FM052a	not augmented	slightly activated	cell growth was not affected										
4-[N,N-Bis(2 -pyridylmethyl)aminomethyl]benzoyl-Phe-Gly-Leu-Arg-Trp-NH2 (X1-FGLRW-NH2) [FM052a]	reduced the migration index; also recorded: nearly same activity with metastin	ERK1 activation was observed	not augmented	slightly activated	cell growth was not affected										
metastin: 54 amino acid peptide with C-terminal amidation processed from KiSS-1; ligand of receptor hOT7T175 (AXOR12)		pERK1 was augmented	no reduction or increase of pJNKs	Slight activation of p38		up to 40%	Neither AsPC-1 nor Panc-1 showed growth retardation	inhibit chemotaxis and invasion	Neither AsPC-1 nor Panc-1 showed growth retardation	attenuates pulmonary metastasis	Invasion activity was not influenced	Invasion activity was not influenced	pERK1 was augmented	no reduction or increase of pJNKs	little influenced
